species on record: Mus musculus; test: Minimum effective dose (MED) of compound against P388 Leukemia in mice was determined; format: functional; details: read-out: MED

Row | SMILES | minimal effective dose [mg/kg]
1 | CO[C@@]12C(COC(N)=O)C3=C(C(=O)C(C)=C(NC=[N+](C)C)C3=O)N1CC1NC12 (some centres undefined) | 0.05
2 | CO[C@@]12C(COC(N)=O)C3=C(C(=O)C(C)=C(NCCS)C3=O)N1CC1NC12 (some centres undefined) | 0.2
3 | CO[C@@]12C(COC(N)=O)c3c(O)c(N=C4C=CC(=O)C=C4)c(C)c(O)c3N1CC1NC12 (some centres undefined) | 0.1
4 | CO[C@@]12[C@H](COC(N)=O)C3=C(C(=O)C(C)=C(N)C3=O)N1C[C@@H]1N[C@@H]12 [MITOMYCIN] | 0.2

Reference: ChEMBL document CHEMBL1124183, “Conformations of complexes between mitomycins and decanucleotides. 3. Sequence specificity, binding at C-10, and mitomycin analogues” (1988)
